Literature values as cited in PMC7797166 (Journal of thoracic oncology : official publication of the …, 2020).
Read-outs that look alike come from different tables or passages of the source.

Test system: T cell
Details: ref Li et al[31], cited from earlier work

Sequence	tetramer assay (HLA-A*31:01)	tetramer assay (HLA-A*11:01)
HVKITDFGR	positive	–
KITDFGRAK	–	negative
